Assay results published in ChEMBL document CHEMBL4651402, “Screening of ~5500 FDA-approved drugs and clinical candidates for anti-SARS-CoV-2 activity” (2021).

System: SARS-CoV-2
Assay: microbe, parasite or virus in culture
Conditions: Severe acute respiratory syndrome coronavirus 2, Vero C1008, 48 h

| Compound | IC50 [µM] | IC50 (read-out: pIC50 (converted)) [µM] |
| --- | --- | --- |
| COc1cccc(CCc2ccccc2OCC(CN(C)C)OC(=O)CCC(=O)O)c1 (stereo not drawn) [SARPOGRELATE] | > 20 | > 20 |
| NCc1ccc(S(N)(=O)=O)cc1 [MAFENIDE] | > 20 | > 20 |
| Cc1[nH]cnc1CN1CCc2c(c3ccccc3n2C)C1=O [ALOSETRON] | > 20 | > 20 |
| c1ccc2c(c1)cc1ccc3cccc4ccc2c1c34 | > 20 | > 20 |
| O=C(O)[C@H]1CCCC[C@]1(O)c1ccccc1 | > 20 | > 20 |
| O=C(O)c1ccccc1OP(=O)(O)O [FOSFOSAL] | > 20 | > 20 |
| C[C@@H]1O[C@@H](O[C@@H]2C=C3CCC4C(CC[C@]5(C)[C@@H](c6ccc(=O)oc6)CC[C@]45O)[C@@]3(C)CC2)[C@H](O)[C@H](O)[C@H]1O (stereo partly drawn) | > 20 | > 20 |
| O=C(N[C@@H](Cc1c[nH]c2ccccc12)C(=O)O)c1ccc(Cl)cc1 [BENZOTRIPT] | > 20 | > 20 |
| O=C(O)c1cc(O)ccc1O [GENTISIC ACID] | > 20 | > 20 |
| Cc1cc(CC(=O)O)n(C)c1[14C](=O)c1ccc(Cl)cc1 | > 20 | > 20 |
| CN1C(C)(C)CC(OC(=O)CCC(=O)OC2CC(C)(C)N(C)C(C)(C)C2)CC1(C)C [SUXEMERID] | > 20 | > 20 |
| COc1ccc(/C=C/C(=O)/C=C(O)/C=C/c2ccc(OC)c(OC)c2)cc1OC | > 20 | > 20 |
| CCCc1nc2c(C)cc(-c3nc4ccccc4n3C)cc2n1Cc1ccc(-c2ccccc2C(=O)O)cc1 | > 20 | > 20 |
| CC(=O)OCC(=O)Nc1cc(C#N)cc(NC(=O)COC(C)=O)c1Cl [ACREOZAST] | > 20 | > 20 |
| [N-]=[N+]=N[C@]1(CO)O[C@@H](n2ccc(N)nc2=O)[C@H](O)[C@@H]1O [4'-AZIDOCYTIDINE] | > 20 | > 20 |
| CCC(C)(C)c1ccc(CC(C)CN2C[C@@H](C)O[C@@H](C)C2)cc1 (stereo partly drawn) [AMOROLFINE] | > 20 | > 20 |
| C[C@]12C=CC(=O)C=C1CCC1C2C(O)C[C@@]2(C)C1CC[C@]2(O)C(=O)COC(=O)c1cccc(S(=O)(=O)O)c1 (stereo partly drawn) | > 20 | > 20 |
| CCN(CC)CCOC(=O)C(O)(c1ccccc1)c1ccccc1 [BENACTYZINE] | > 20 | > 20 |
| O=C(O)CCCCC1CCSS1 (stereo not drawn) [LIPOIC ACID, ALPHA] | > 20 | > 20 |
| COc1cccc2c1C(=O)c1c(O)c3c(c(O)c1C2=O)CC(O)(/C(C)=N/NC(=O)c1ccccc1)CC3OC1CC(N)C(O)C(C)O1 (stereo not drawn) | > 20 | > 20 |
| CCC1(CC)C(=O)NC(=S)NC1=O | > 20 | > 20 |
| CC(C)=CCC/C(C)=C/CC/C(C)=C/CSc1ccccc1C(=O)O [SALIRASIB] | > 20 | > 20 |
| CN(c1nc2ccccc2s1)C1CCN(CC(O)COc2ccc(F)cc2)CC1 (stereo not drawn) [SABELUZOLE] | > 20 | > 20 |
| CC(=O)OC1CCC2(C)C3CC(=O)C4(C)C(C(C)=O)=CCC4C3CC[C@H]2C1 (stereo partly drawn) | > 20 | > 20 |
| O=[N+]([O-])c1ccc(NN=C(c2ccc(O)cc2)c2ccc(O)cc2)c([N+](=O)[O-])c1 | > 20 | > 20 |

| Compound | IC50 [µM] | IC50 (read-out: pIC50 (converted)) [µM] |
| --- | --- | --- |
| OC1CCCc2nc3ccccc3c(NCc3ccccc3)c21 (stereo not drawn) [SURONACRINE] | > 20 | > 20 |
| CN1CCN(Cc2ccc(Nc3ncc(Cl)c(Nc4ccccc4S(=O)(=O)N(C)C)n3)cc2)CC1 [DUBERMATINIB] | > 20 | > 20 |
| Cc1ccc2c(=O)c3cccc(CC(=O)O)c3oc2c1C [VADIMEZAN] | > 20 | > 20 |
| NS(=O)(=O)c1cc2c(cc1Cl)NC(CC1CCCC1)NS2(=O)=O (stereo not drawn) [CYCLOPENTHIAZIDE] | > 20 | > 20 |
| CCCOc1ccc(C(=O)OCCN(CC)CC)cc1N [PROPARACAINE] | > 20 | > 20 |
| O=C(O)C1=C[C@@H](O)[C@@H](O)[C@H](O)C1 [SHIKIMIC ACID] | > 20 | > 20 |
| C=CCn1c(N)cc(=O)n(CC)c1=O [AMINOMETRADINE] | > 20 | > 20 |
| COP(=O)(c1cc(C)cc(/C=C/C#N)c1)c1c(C(N)=O)[nH]c2ccc(Cl)cc12 (stereo not drawn) | > 20 | > 20 |
| Cc1cccc(CN2CCN(C(c3ccccc3)c3ccc(Cl)cc3)CC2)c1 (stereo not drawn) [MECLIZINE] | > 20 | > 20 |
| CNCc1ccc(-c2[nH]c3cc(F)cc4c3c2CCNC4=O)cc1 [RUCAPARIB] | > 20 | > 20 |
| CC(C)c1ccc2c(c1)CCC1C(C)(CN)CCCC21C (stereo not drawn) | > 20 | > 20 |
| C#CCC/C(O)=C(\C#N)C(=O)Nc1ccc(C(F)(F)F)cc1 | > 20 | > 20 |
| COC(=O)C1=C(C)NC(C)=C(C(=O)O[C@@H]2CCN(Cc3ccccc3)C2)[C@H]1c1cccc([N+](=O)[O-])c1 | > 20 | > 20 |
| O=P(O)(O)OC[C@H]1OC(O)[C@H](O)[C@@H](O)[C@@H]1O (stereo partly drawn) | > 20 | > 20 |
| O=[N+]([O-])O[C@@H]1CO[C@H]2[C@@H]1OC[C@@H]2O [ISOSORBIDE MONONITRATE] | > 20 | > 20 |
| CC(C)(C)NCC(O)c1ccc(O)c(O)c1 (stereo not drawn) [COLTEROL] | > 20 | > 20 |
| C=C(C)[C@@H]1CCC(C)=C[C@H]1c1c(O)cc(CCCCC)cc1O [CANNABIDIOL] | > 20 | > 20 |
| O=C(c1ccc(OCCN2CCCCC2)cc1)c1c(-c2ccc(O)cc2)sc2cc(O)ccc12 [RALOXIFENE] | > 20 | > 20 |
| CC[C@H](C)C(=O)O[C@H]1CCC=C2C=C[C@H](C)[C@H](CC[C@@H]3C[C@@H](O)CC(=O)O3)[C@H]21 [MEVASTATIN] | > 20 | > 20 |
| O=c1[nH]c(=O)n(Cl)c(=O)n1Cl [TROCLOSENE] | > 20 | > 20 |
| CN1CCO[C@@H](c2ccccc2)c2ccccc2C1 | > 20 | > 20 |
| CCOC(=O)[C@H](CCc1ccccc1)N[C@@H](C)C(=O)N1[C@H](C(=O)O)C[C@H]2CCCC[C@@H]21 [TRANDOLAPRIL] | > 20 | > 20 |
| CC12CCC3C(CCC4CC(O)CCC43C)C1CCC2=O (stereo not drawn) | > 20 | > 20 |
| Cc1cccc(C)c1NC(=O)c1ccccc1C(=O)O [FTAXILIDE] | > 20 | > 20 |
| CC(=O)Nc1ccc(OC(C)(C)C)cc1 [BUTACETIN] | > 20 | > 20 |

| Compound | IC50 [µM] | IC50 (read-out: pIC50 (converted)) [µM] |
| --- | --- | --- |
| O=C(O[C@@H]1Cc2c(O)cc(O)cc2O[C@@H]1c1cc(O)c(=O)c2c(O)c(O)cc([C@H]3Oc4cc(O)cc(O)c4C[C@H]3O)c2c1)c1cc(O)c(O)c(O)c1 [THEAFLAVIN MONOGALLATES] | > 20 | > 20 |
| CN(C)CCN(Cc1ccccc1)c1ccccn1 [TRIPELENNAMINE] | > 20 | > 20 |
| C=CCC1(CC(C)C)C(=O)NC(=O)NC1=O [BUTALBITAL] | > 20 | > 20 |
| CN(C)CCOCC(=O)NC12CC3CC(CC(C3)C1)C2 | > 20 | > 20 |
| O=C(O)CCCCC(CCSCc1ccccc1)SCc1ccccc1 (stereo not drawn) [CPI 613] | > 20 | > 20 |
| c1ccc2c(CC3=NCCN3)cccc2c1 [NAPHAZOLINE] | > 20 | > 20 |
| C[C@@H]1O[C@@H](O[C@H]2CC[C@]3(C=O)[C@H]4CC[C@]5(C)[C@@H](C6=CC(=O)OC6)CC[C@]5(O)[C@@H]4CC[C@]3(O)C2)[C@H](O)[C@H](O)[C@H]1O [CONVALLATOXIN] | > 20 | > 20 |
| COc1ccc([C@H](Cc2ccncc2)c2ccccc2)cc1OC1CCCC1 [CDP840] | > 20 | > 20 |
| CO[C@H]1C[C@@H]2CC[C@@H](C)[C@@](O)(O2)C(=O)C(=O)N2CCCC[C@H]2C(=O)O[C@H]([C@H](C)C[C@@H]2CC[C@@H](OP(C)(C)=O)[C@H](OC)C2)CC(=O)[C@H](C)/C=C(/C)[C@@H](O)[C@@H](OC)C(=O)[C@H](C)C[C@H](C)\C=C/C=C\C=C/1C | > 20 | > 20 |
| CC(=O)NS(=O)(=O)c1ccc(NC(=O)c2ccccc2C(=O)O)cc1 | > 20 | > 20 |
| C#C[C@]1(O)CCC2C3CCC4=CC(=O)CCC4C3CCC21CC (stereo partly drawn) | > 20 | > 20 |
| CC(=O)N1CCC(=C2c3ccc(Cl)cc3CCc3cccnc32)CC1 [SCH-37370] | > 20 | > 20 |
| CN(C)CCC(c1ccccc1)C1CCCCC1 (stereo not drawn) [GAMFEXINE] | > 20 | > 20 |
| CC(C)NCC(O)c1cc(O)cc(O)c1 (stereo not drawn) | > 20 | > 20 |
| CCN(CC)CCOC(=O)C(c1ccccc1)C1(O)CCCC1 (stereo not drawn) | > 20 | > 20 |
| COc1ccc(CC2c3cc(OC)c(OC)cc3CC[N+]2(C)CCC(=O)OCCCCCOC(=O)CC[N+]2(C)CCc3cc(OC)c(OC)cc3C2Cc2ccc(OC)c(OC)c2)cc1OC (stereo not drawn) | > 20 | > 20 |
| CS(=O)(=O)c1ccc(-c2cnc(N)c(-c3ccc(C(F)(F)F)nc3)c2)cc1 [MMV-048] | > 20 | > 20 |
| CN(C)CC[C@H](CSc1ccccc1)Nc1ccc(S(=O)(=O)NC(=O)c2ccc(N3CCN(Cc4ccccc4-c4ccc(Cl)cc4)CC3)cc2)cc1[N+](=O)[O-] [ABT 737] | > 20 | > 20 |
| NC(=O)c1ccc([N+](=O)[O-])cc1Cl [AKLOMIDE] | > 20 | > 20 |
| O=C(O)C[C@@H]1CCc2c1[nH]c1ccc(OCc3ccc(C4CCCC4)c(C(F)(F)F)c3)cc21 | > 20 | > 20 |
| CN1CCN(/C=C2\N=C3CN=C(c4ccccc4Cl)c4cc([N+](=O)[O-])ccc4N3C2=O)CC1 [LOPRAZOLAM] | > 20 | > 20 |
| C[N+]1(C)CCC[C@H]1C(=O)[O-] | > 20 | > 20 |
| Oc1ncnc2[nH]ncc12 [ALLOPURINOL] | > 20 | > 20 |
| Cc1nc(N(C)C(=O)Cc2ccc(-c3ccccn3)cc2)sc1S(N)(=O)=O | > 20 | > 20 |
